Results from US20080085874A1, “SMALL MOLECULE POTENTIATOR OF HORMONAL THERAPY FOR BREAST CANCER” (The Regents of the University of California, priority 2006, published 2008).
Where a name gives a salt, the structure may show the parent alone. Read-outs that look alike come from different tables or passages of the source. Values belong to the compound of their own block, whether it stands above or below them.

What was measured:
[1] = tested on: Ishikawa endometrial adenocarcinoma cells; assay: Cell proliferation assay in endometrial cells; assay type: cell-based; settings: 7 days, 750 μM VPA; for cell numbers / proliferation: 10 nM OH-Tam, 100 pM or 1 nM E2
From the text: (§1) Cell Culture and Ligands. MCF-7 cells were provided by C. Walker (MD Anderson Cancer Center, Houston, Tex.) and were routinely cultured in IMEM (Invitrogen, Grand Island, N.Y.) with 10% fetal calf serum (FBS) (Hyclone, Logan, Utah). Ishikawa cells were also provided by C. Walker and cultured in DMEM/Ham's F12 with 10% FBS. T47-D cells were obtained from ATCC and were routinely cultured in DMBM (Invitrogen) plus 10% FBS. ZR-75-1 cells were provided by B. Hahn (University of California, San Francisco) and were routinely cultured in RPMI (Invitrogen) plus 10% PBS. MCF-7/neo and MCF-7/HER2 (clone 18) cells were also obtained from B. Hahn and cultured in DMEM plus 10% FBS. MCF-7aro cells were provided by S. Chen (Beckham Research Institute of the City of Hope) and routinely grown in DMEM/Ham's F12 plus 10% FBS. For all experiments cells were switched to phenol red-free media containing 5% charcoal/dextran-stripped FBS (Hyclone) for 3-5 days prior to start of the experiment. Cells were treated with ligands in media containing 2-5% stripped PBS for the indicated times.
(§2) Cell Proliferation Assays. Cells growing in 24-well dishes were treated with ligands in triplicate for the indicated times. Cells were trypsinized and counted electronically with a Coulter Counter (Coulter Electronics, Hialeah, Fla.). Alternatively, cell proliferation was measured using a fluorescent DNA-binding assay, CyQUANT (Invitrogen) in which cells were treated with ligands in triplicate in 96-well plates for the indicated times and assayed according to the manufacturer's instructions.

[2] = tested on: endogenous ERα at estrogen response element (ERE); assay: ERE-Luc luciferase reporter gene transfection assay; settings: for ERE-Luc transcription: 24 hours
Method: MCF-7 cells growing in 12-well dishes were transfected with ERE-Luc and β-galactosidase reporter gene using Lipofectamine 2000 transfection reagent (Invitrogen) according to manufacturer's instructions. […] Five hours after transfection, cells were treated in triplicate with ligands and harvested 24 hours later using a lysis buffer containing 100 MM TrisHCl, 1% Triton-X100 and 1.μ/ml dithiothreitol. Reporter gene activity was measured using assay kits for Luciferase (Promega, Madison, Wis.) and β-galactosidase (Tropix, Bedford, Mass.), according to manufacturer's instructions.

Bcl-2 = assay: Immunoblotting of Bcl-2 protein in MCF-7 cells; assay type: cell-based, human; settings: 72 hours
Method: (§3) Immunoblotting. MCF-7 cells were grown in 100 mm dishes and treated with ligands in triplicate. […] Whole cell extracts were separated by SDS-PAGE, transferred to a nitrocellulose membrane, and immunoblotted using standard methods with the following antibodies: ERα, Bik, Bcl-2, and β-tubulin (all from Santa Cruz Biotechnology, Santa Cruz, Calif.) and cyclin D1 (Zymed, San Francisco, Calif.).

MCF-7 cells [3] = assay: Cell proliferation assay (Coulter Counter or CyQUANT fluorescent DNA-binding assay) in MCF-7 cells; assay type: cell-based, human; settings: for E2-stimulated growth, antiestrogen alone / E2-stimulated growth, antiestrogen plus VPA: 100 pM E2, 7 days, fulvestrant at higher concentrations; for E2-stimulated growth, antiestrogen plus VPA: plus 750 μM VPA; for effect of HDAC inhibitor on antiproliferative action of tamoxifen: range of HDAC inhibitor doses with 10 nM OH-Tam
From the text: as §1, §2

MCF-7 cells [4] = assay: Annexin V apoptosis assay; assay type: cell-based, human; settings: 72 hours, absence of E2
Method: Apoptosis. MCF-7 cells growing on coverslips were treated with ligands for 72 hours and unfixed cells were assayed with the Annexin-V-FLOUS Staining kit (Roche), according to manufacturer's instructions. Total cell number was determined by counting nuclei stained with Hoescht 33342 (Roche). Fluorescence was analyzed using a Zeiss Axioplan fluorescent microscope (Zeiss, Thomwood, N.Y.).

MCF-7 cells [5] = assay: Flow cytometry cell cycle distribution (DNA content); assay type: cell-based, human; settings: 48 hours
Method: Flow cytometry. MCF-7 cells growing in 100 mm dishes were treated with ligands for 48 hours, then trypsinized and fixed in 70% ethanol and stained with […] propidium iodide (Roche, Nutley, N.J.). DNA content was obtained by measuring 10,000 events on a FACScalibur flow cytometer (BD Biosciences, San Jose, Calif.). The percentages of cells in each phase of the cell cycle were determined using the Watson (Pragmatic) model analyzed by FlowJo flow cytometry software (Treestar, San Carlos, Calif.).

MCF-7 cells [6] = assay: Phase microscopy of cell number and morphology; assay type: cell-based, human; settings: 6 days, 100 pM E2, 750 μM VPA, 10 nM OH-Tam
MCF-7/HER2 cells = assay: Cell proliferation assay in MCF-7 cells overexpressing HER2/neu; assay type: cell-based, human; settings: 10 pM E2, 750 μM VPA and/or 10 nM OH-Tam, 7 days
From the text: as §1, with “Cells were treated with ligands in media containing 2-5% stripped PBS for the indicated times.” left out
as §2, with “Cells growing in 24-well dishes were treated with ligands in triplicate for the indicated times.” left out

MCF-7aro cells = assay: Cell proliferation assay in MCF-7 cells with stably expressed aromatase; assay type: cell-based, human; settings: 5 days
From the text: as §1, with “Cells were treated with ligands in media containing 2-5% stripped PBS for the indicated times.” left out
as §2, with “Cells growing in 24-well dishes were treated with ligands in triplicate for the indicated times.” left out

cyclin D1 = assay: Immunoblotting of cyclin D1 protein in MCF-7 cells; assay type: cell-based, human; settings: 72 hours
Method: as §3
(§4) Changes in protein expression from endogenous genes in MCF-7 cells treated for 72 hours with ligands was also evaluated.

ERα = assay: Immunoblotting of ERα protein in MCF-7 cells; assay type: cell-based, human; settings: 72 hours
Method: as §3, §4

Compound: C[C@]12CC[C@@H]3c4ccc(O)cc4CC[C@H]3[C@@H]1CC[C@@H]2O [E2, 17β-estradiol]
cell numbers / proliferation [1]: increase was observed in cell numbers
stimulation of ERE-Luc transcription ([2]; 100 pM E2, 24 hours): approximately 13 fold
Bcl-2 protein expression (Bcl-2): upregulated

Compound: O=C(c1ccc(OCCN2CCCCC2)cc1)c1c(-c2ccc(O)cc2)sc2cc(O)ccc12 [Raloxifene, raloxifene]
E2-stimulated growth, antiestrogen alone (MCF-7 cells [3]): substantially decreased E2-stimulated growth
E2-stimulated growth, antiestrogen plus VPA (MCF-7 cells [3]): VPA further enhanced its inhibitory effect

ERE-Luc transcription ([2]; high concentrations, alone): induced transcription
Compound: CC(/C=C/C(=O)NO)=C\[C@@H](C)C(=O)c1ccc(N(C)C)cc1 [TSA, trichostatin A]
IC50 (MCF-7 cells [3]; 100 pM E2, day 7, read-out: IC50 (cell proliferation), HDAC inhibitor alone): 0.051 µM
effect of HDAC inhibitor on antiproliferative action of tamoxifen (MCF-7 cells [3]; 100 pM E2, day 7): enhanced the antiproliferative action of tamoxifen
IC50 (MCF-7 cells [3]; read-out: IC50 (cell proliferation), co-treatment with tamoxifen, with 10 nM OH-Tam, 100 pM E2, day 7): 0.032 µM

ERE-Luc transcription ([2]; high concentrations, alone): induced transcription
Compound: CCCC(CCC)C(=O)O [VPA, valproic acid sodium salt (sodium 2-propylpentanoate)]
AnnexinV positive cells (apoptotic index), % of total cell population (MCF-7 cells [4]): approximately 1.37%
addition of VPA to tamoxifen on E2-induced cell cycle progression (MCF-7 cells [5]; E2 present): did not yield a detectable change
cell cycle distribution (MCF-7 cells [5]; E2 present): had no effect
cell cycle distribution (MCF-7 cells [5]; absence of E2): induced a small arrest in the G1 phase
effect of VPA on E2- and tamoxifen-induced proliferation [1]: equally antagonized the proliferative effect of E2 and tamoxifen
cell numbers / proliferation [1]: dramatically inhibited proliferation
cell number and morphology by phase microscopy (MCF-7 cells [6]): fewer cells as well as an increased number of floating cells
cell proliferation (MCF-7/HER2 cells): inhibited by VPA
testosterone-induced proliferation, VPA with letrozole (MCF-7aro cells; 750 μM VPA, regardless of the letrozole dose tested): inhibited proliferation more than that observed with letrozole alone
cyclin D1 expression (cyclin D1): did not alter cyclin D1 expression
ERE-Luc transcription ([2]; 750 μM VPA, alone or with 10 nM OH-Tam): unable to activate transcription alone or in the presence of tamoxifen
E2-induced ERE-Luc transcriptional activity ([2]; high dose of VPA alone, in the presence of E2): inhibited E2-induced transcriptional activity
Bcl-2 protein expression (Bcl-2): did not have any effect on Bcl-2 expression either alone or with tamoxifen
ERα protein expression (ERα; only observed in the absence of E2): slightly downregulated ERα protein expression
increased ERα expression seen with tamoxifen treatment (ERα; VPA with tamoxifen, absence of E2): attenuated the increased ERα expression
E2-induced cell proliferation (MCF-7 cells [3]; 750 μM VPA, 10 nM OH-Tam, 6-7 days, counted electronically): inhibition by VPA was even more dramatic
effect of VPA on tamoxifen inhibition of cell proliferation (MCF-7 cells [3]; 750 μM VPA, OH-Tam 0 to 500 nM, 100 pM E2, day 6): enhanced the relative efficacy of tamoxifen at all doses tested
cell proliferation (MCF-7 cells [3]; 750 μM VPA, without E2, 6-7 days, counted electronically): inhibited MCF 7 cells
inhibition at 750 µM (MCF-7 cells [3]; Homo sapiens, MCF7, 144 h, 750 μM VPA alone, 100 pM E2, day 6, fluorescent DNA-binding assay, read-out: inhibition of E2-stimulated cell proliferation): 25%
IC50 (MCF-7 cells [3]; Homo sapiens, MCF7, 168 h, 100 pM E2, day 7, doses of VPA ranging from 50 μM to 5 M, read-out: IC50 (cell proliferation), HDAC inhibitor alone): 800 µM
IC50 (MCF-7 cells [3]; Homo sapiens, MCF7, 168 h, read-out: IC50 (cell proliferation), tamoxifen co-treatment, with 10 nM OH-Tam, 100 pM E2, day 7): 500 µM
slowing of breast cancer cell growth in combination (MCF-7 cells [3]; VPA 750 μM with rapamycin 0.05 nM, picropodophyllin 100 nM, tamoxifen 100 nM): combines effectively
slowing of breast cancer cell growth in combination (MCF-7 cells [3]; VPA 750 μM with rapamycin […], gefitinib 1 μM, with and without tamoxifen 100 nM): combines effectively
effect of HDAC inhibitor on antiproliferative action of tamoxifen (MCF-7 cells [3]; 100 pM E2, day 7): enhanced the action of tamoxifen

Compound: NC(=O)N1c2ccccc2C=Cc2ccccc21 [carbamazepine]
slowing of breast cancer cell growth in combination (MCF-7 cells [3]; carbamazepine 50 μM with rapamycin 2 nM, picropodophyllin 100 nM, tamoxifen 10 nM): combines effectively

Compound: C[C@]12CC[C@@H]3c4ccc(O)cc4C[C@@H](CCCCCCCCC[S+]([O-])CCCC(F)(F)C(F)(F)F)[C@H]3[C@@H]1CC[C@@H]2O (stereo partly drawn) [fulvestrant, Fulvestrant]
E2-stimulated growth, antiestrogen alone (MCF-7 cells [3]): decreased E2-induced proliferation
E2-stimulated growth, sub-saturating fulvestrant plus VPA (MCF-7 cells [3]; fulvestrant 1 to 5 nM plus VPA): VPA enhanced the anti-proliferative effect of lower doses of fulvestrant in a dose responsive manner
E2-stimulated growth, antiestrogen plus VPA (MCF-7 cells [3]): VPA did not further add to its inhibitory effect

Compound: N#Cc1ccc(C(c2ccc(C#N)cc2)n2cncn2)cc1 [letrozole]
testosterone-induced proliferation (MCF-7aro cells; 1 nM testosterone): inhibited testosterone-induced proliferation in a dose responsive manner
